Patent US20120077854A1, “COMPOSITIONS AND METHODS FOR MODULATING RETINOL BINDING TO RETINOL BINDING PROTEIN 4 (RBP4)” (priority 2009, published 2012)
pIC50: −log10 of the molar value.

Each compound was assayed against RBP4 (Homo sapiens, UniProt P02753) (assay: HTRF competition assay: displacement of Cy5-labeled retinol from RBP4). Conditions: 10 nM biotin-labeled RBP4, streptavidin-Europium cryptate 1 nM, room temperature 30 min.
Assay type: binding
Experimental: To determine the binding affinity of test compounds for RBP4, a homogeneous time resolved fluorescence (HTRF) assay was developed. The assay was a competition experiment measuring the interaction of RBP4 with the known RBP4 ligand retinol. Cy5-labeled retinol was incubated with 10 nM biotin-labeled RBP4 protein and streptavidin-Europium cryptate (1 nM). Test or control compounds were added to the reaction mixture and incubated at room temperature for 30 min. The HTRF signal was determined by monitoring the emission at 665 nm and […]. The ratio between the 665 nM signal and the […] signal was used to determine the binding of Cy5-retinol to RBP4. The ability of test or control compounds to displace Cy5-retinol from RBP4 was used to determine their potency for RBP4. […]

Compound | pIC50
O=C(O)Cc1csc(-c2cc(Cl)cc(C(F)(F)F)c2)n1 [Example 8, 2-(2-(3-Chloro-5-(trifluoromethyl)phenyl)thiazol-4-yl)acetic acid] | 7.06
O=C(O)Cc1csc(-c2ccc(Cl)c(C(F)(F)F)c2)n1 [Example 10, 2-(2-(4-Chloro-3-(trifluoromethyl)phenyl)thiazol-4-yl)acetic acid] | 7.20
O=C(O)Cc1nc(-c2cc(F)cc(C(F)(F)F)c2)cs1 [Example 13, 2-(4-(3-Fluoro-5-(trifluoromethyl)phenyl)thiazol-2-yl)acetic acid] | 7.04
Cc1ccc(-c2nc(CC(=O)O)cs2)cc1C(F)(F)F [Example 17, 2-(2-(4-Methyl-3-(trifluoromethyl)phenyl)thiazol-4-yl)acetic acid] | 7.07
O=C(O)Cc1csc(-c2ccc(F)c(C(F)(F)F)c2)n1 [Example 18, 2-(2-(4-Fluoro-3-(trifluoromethyl)phenyl)thiazol-4-yl)acetic acid] | 6.36
O=C(O)Cc1coc(-c2cc(F)cc(C(F)(F)F)c2)n1 [Example 19, 2-(2-(3-Fluoro-5-(trifluoromethyl)phenyl)oxazol-4-yl)acetic acid] | 6.18
O=C(O)Cc1csc(-c2cc(F)cc(C(F)(F)F)c2)n1 [Example 20, 2-(2-(3-Fluoro-5-(trifluoromethyl)phenyl)thiazol-4-yl)acetic acid] | 6.77
O=C(O)Cc1csc(-c2cc(C(F)(F)F)ccc2Cl)n1 [Example 21, 2-(2-(2-Chloro-5-(trifluoromethyl)phenyl)thiazol-4-yl)acetic acid] | 5.98
O=C(O)Cc1coc(-c2cccc(C(F)(F)F)c2Cl)n1 [Example 22, 2-(2-(2-Chloro-3-(trifluoromethyl)phenyl)oxazol-4-yl)acetic acid] | 5.78
COc1ccc(-c2nc(CC(=O)O)co2)cc1C(F)(F)F [Example 23, 2-(2-(4-Methoxy-3-(trifluoromethyl)phenyl)oxazol-4-yl)acetic acid] | 6.76
O=C(O)Cc1coc(-c2ccc(F)c(C(F)(F)F)c2)n1 [Example 24, 2-(2-(4-Fluoro-3-(trifluoromethyl)phenyl)oxazol-4-yl)acetic acid] | 6.14
O=C(O)Cc1cc(-c2ccc(Cl)c(C(F)(F)F)c2)no1 [Example 25, 2-(3-(4-Chloro-3-(trifluoromethyl)phenyl)isoxazol-5-yl)acetic acid] | 6.55
COc1ccc(-c2nc(CC(=O)O)cs2)cc1C(F)(F)F [Example 26, 2-(2-(4-Methoxy-3-(trifluoromethyl)phenyl)thiazol-4-yl)acetic acid] | 6.71
O=C(O)Cc1csc(-c2cccc(C(F)(F)F)c2Cl)n1 [Example 27, 2-(2-(2-Chloro-3-(trifluoromethyl)phenyl)thiazol-4-yl)acetic acid] | 5.62
O=C(O)Cc1csc(-c2cc(Br)cc(C(F)(F)F)c2)n1 [Example 28, 2-(2-(3-Bromo-5-(trifluoromethyl)phenyl)thiazol-4-yl)acetic acid] | 7.30
O=C(O)Cc1coc(-c2cc(F)c(F)c(C(F)(F)F)c2)n1 [Example 29, 2-(2-(3,4-Difluoro-5-(trifluoromethyl)phenyl)oxazol-4-yl)acetic acid] | 6.58
O=C(O)Cc1csc(-c2cc(F)c(F)c(C(F)(F)F)c2)n1 [Example 30, 2-(2-(3,4-Difluoro-5-(trifluoromethyl)phenyl)thiazol-4-yl)acetic acid] | 7.07
FC(F)(F)c1cc(-c2nc(Cc3nn[nH]n3)cs2)ccc1Cl [Example 35, 5-[2-(4-Chloro-3-trifluoromethyl-phenyl)-thiazol-4-ylmethyl]-2H-tetrazole] | 6.71
O=C(O)Cc1coc(-c2cc(C(F)(F)F)ccc2Cl)n1 [Example 36, 2-(2-(2-Chloro-5-(trifluoromethyl)phenyl)oxazol-4-yl)acetic acid] | 5.05
O=C(O)Cc1coc(-c2cc(Br)cc(C(F)(F)F)c2)n1 [Example 37, 2-(2-(3-Bromo-5-(trifluoromethyl)phenyl)oxazol-4-yl)acetic acid] | < 5.00

Now from value to compound:

pIC50 | Compound
5.61 | COC(=O)Cc1csc(-c2cc(C(F)(F)F)cc(C(F)(F)F)c2)n1 [Example 1, Methyl 2-(2-(3,5-bis(trifluoromethyl)phenyl)thiazol-4-yl)acetate]
7.07 | O=C(O)Cc1csc(-c2cc(C(F)(F)F)cc(C(F)(F)F)c2)n1 [Example 2, 2-(2-(3,5-Bis(trifluoromethyl)phenyl)thiazol-4-yl)acetic acid]
5.46 | COC(=O)Cc1nc(-c2cc(C(F)(F)F)cc(C(F)(F)F)c2)no1 [Example 3, Methyl 2-(3-(3,5-bis(trifluoromethyl)phenyl)-1,2,4-oxadiazol-5-yl)acetate]
5.55 | COC(=O)Cc1coc(-c2cc(C(F)(F)F)cc(C(F)(F)F)c2)n1 [Example 4, Methyl 2-(2-(3,5-bis(trifluoromethyl)phenyl)oxazol-4-yl)acetate]
6.03 | COC(=O)Cc1nc(-c2cc(C(F)(F)F)cc(C(F)(F)F)c2)co1 [Example 5, Methyl 2-(4-(3,5-bis(trifluoromethyl)phenyl)oxazol-2-yl)acetate]
7.03 | O=C(O)Cc1coc(-c2cc(C(F)(F)F)cc(C(F)(F)F)c2)n1 [Example 6, 2-(2-(3,5-Bis(trifluoromethyl)phenyl)oxazol-4-yl) acetic acid]
7.51 | O=C(O)Cc1nc(-c2cc(C(F)(F)F)cc(C(F)(F)F)c2)co1 [Example 7, 2-(4-(3,5-Bis(trifluoromethyl)phenyl)oxazol-2-yl)acetic acid]
6.63 | Cc1sc(CC(=O)O)nc1-c1cc(C(F)(F)F)cc(C(F)(F)F)c1 [Example 9, 2-(4-(3,5-Bis(trifluoromethyl)phenyl)-5-methylthiazol-2-yl)acetic acid]
5.80 | Cc1oc(CC(=O)O)nc1-c1cc(C(F)(F)F)cc(C(F)(F)F)c1 [Example 11, 2-(4-(3,5-Bis(trifluoromethyl)phenyl)-5-methyloxazol-2-yl)acetic acid]
7.14 | O=C(O)Cc1nc(-c2cc(F)cc(C(F)(F)F)c2)co1 [Example 12, 2-(4-(3-Fluoro-5-(trifluoromethyl)phenyl)oxazol-2-yl)acetic acid]
7.06 | COc1cc(-c2nc(CC(=O)O)cs2)cc(C(F)(F)F)c1 [Example 14, 2-(2-(3-Methoxy-5-(trifluoromethyl)phenyl)thiazol-4-yl)acetic acid]
6.61 | COc1cc(-c2nc(CC(=O)O)co2)cc(C(F)(F)F)c1 [Example 15, 2-(2-(3-Methoxy-5-(trifluoromethyl)phenyl)oxazol-4-yl)acetic acid]
6.85 | O=C(O)C(O)c1csc(-c2cc(C(F)(F)F)cc(C(F)(F)F)c2)n1 (stereo not drawn) [Example 16, 2-(2-(3,5-Bis(trifluoromethyl)phenyl)thiazol-4-yl)-2-hydroxyacetic acid]
6.87 | O=C(O)Cc1csc(-c2cc(C(F)F)cc(C(F)(F)F)c2)n1 [Example 32, 2-(2-(3-(Difluoromethyl)-5-(trifluoromethyl)phenyl)thiazol-4-yl)acetic acid]
5.97 | O=C(O)c1nc(-c2cc(C(F)(F)F)cc(C(F)(F)F)c2)cs1 [Example 33, 4-(3,5-Bis-trifluoromethyl-phenyl)-thiazole-2-carboxylic acid]
7.01 | FC(F)(F)c1cc(-c2nc(Cc3nn[nH]n3)cs2)cc(C(F)(F)F)c1 [Example 34, 5-[2-(3,5-Bis-trifluoromethyl-phenyl)-thiazol-4-ylmethyl]-2H-tetrazole]
